The values below come from ChEMBL document CHEMBL3431459, “Roche carnitine palmitoyltransferase modulator screening data (supplementary data associated with the publication CHEMBL2216752)”.

Data set [1] deals with T1, Carnitine O-palmitoyltransferase 1, muscle isoform (Homo sapiens, UniProt Q92523).
T1 sequence (Q92523 whole entry): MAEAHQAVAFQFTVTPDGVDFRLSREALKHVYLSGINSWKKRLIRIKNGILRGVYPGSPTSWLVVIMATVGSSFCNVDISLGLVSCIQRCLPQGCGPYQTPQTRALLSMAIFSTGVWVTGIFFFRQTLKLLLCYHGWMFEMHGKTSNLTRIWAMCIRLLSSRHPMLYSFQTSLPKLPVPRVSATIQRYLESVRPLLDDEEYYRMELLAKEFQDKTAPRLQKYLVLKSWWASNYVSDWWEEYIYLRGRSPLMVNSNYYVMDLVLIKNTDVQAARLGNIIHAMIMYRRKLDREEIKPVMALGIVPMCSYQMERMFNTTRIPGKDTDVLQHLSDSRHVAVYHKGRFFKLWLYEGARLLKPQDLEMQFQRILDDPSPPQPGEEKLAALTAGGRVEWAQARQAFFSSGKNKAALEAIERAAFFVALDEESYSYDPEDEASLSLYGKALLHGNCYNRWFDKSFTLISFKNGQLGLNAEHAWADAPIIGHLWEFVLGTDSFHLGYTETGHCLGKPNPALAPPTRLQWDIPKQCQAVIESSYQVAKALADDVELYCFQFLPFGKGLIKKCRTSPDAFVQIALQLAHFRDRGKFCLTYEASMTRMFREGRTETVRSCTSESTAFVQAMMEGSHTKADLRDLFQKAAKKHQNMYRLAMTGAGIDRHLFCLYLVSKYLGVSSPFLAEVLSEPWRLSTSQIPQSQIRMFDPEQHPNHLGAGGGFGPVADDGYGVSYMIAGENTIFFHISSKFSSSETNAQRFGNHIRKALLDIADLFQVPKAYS
The data set can be described thus: SUPPLEMENTARY: Inhibition of Carnitine palmitoyltransferase 1, muscle isoform. Also on record: species or system Muscle tissue.

The nature of data set [2]: SUPPLEMENTARY: PAMPA permeability assay. Format: physicochemical. Conditions: read-out: Permeability. For orientation: In PAMPA a lipid-coated filter parts donor from acceptor wells.
In data set [3] the target is T2, Carnitine O-palmitoyltransferase 1, liver isoform (Homo sapiens, UniProt P50416).
T2 sequence (P50416 whole entry): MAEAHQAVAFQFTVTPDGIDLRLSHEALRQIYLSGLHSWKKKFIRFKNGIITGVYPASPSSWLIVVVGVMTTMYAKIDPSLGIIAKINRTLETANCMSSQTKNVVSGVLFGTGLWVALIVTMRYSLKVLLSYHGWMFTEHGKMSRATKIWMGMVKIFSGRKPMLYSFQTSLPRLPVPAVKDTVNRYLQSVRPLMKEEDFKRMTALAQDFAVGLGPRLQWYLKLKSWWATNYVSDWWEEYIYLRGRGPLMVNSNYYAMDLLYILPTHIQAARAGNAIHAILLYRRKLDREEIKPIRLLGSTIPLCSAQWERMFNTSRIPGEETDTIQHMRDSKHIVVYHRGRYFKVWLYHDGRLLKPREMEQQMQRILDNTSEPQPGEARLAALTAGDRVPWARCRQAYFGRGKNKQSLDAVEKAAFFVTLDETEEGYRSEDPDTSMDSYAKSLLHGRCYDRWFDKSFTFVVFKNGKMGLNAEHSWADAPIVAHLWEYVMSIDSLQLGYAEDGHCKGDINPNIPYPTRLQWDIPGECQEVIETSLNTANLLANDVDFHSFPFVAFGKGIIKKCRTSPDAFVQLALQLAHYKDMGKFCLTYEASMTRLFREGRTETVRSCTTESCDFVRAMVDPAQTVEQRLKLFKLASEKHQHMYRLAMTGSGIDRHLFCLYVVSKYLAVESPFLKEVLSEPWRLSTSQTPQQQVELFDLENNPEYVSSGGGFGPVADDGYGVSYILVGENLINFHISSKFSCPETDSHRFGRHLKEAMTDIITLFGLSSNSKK
The data set can be described thus: (§1) SUPPLEMENTARY: Inhibition of Carnitine palmitoyltransferase 1, liver isoform.

For data set [4], the target named is T3, Carnitine O-palmitoyltransferase 1, liver isoform (Rattus norvegicus, UniProt P32198).
T3 sequence (P32198 whole entry): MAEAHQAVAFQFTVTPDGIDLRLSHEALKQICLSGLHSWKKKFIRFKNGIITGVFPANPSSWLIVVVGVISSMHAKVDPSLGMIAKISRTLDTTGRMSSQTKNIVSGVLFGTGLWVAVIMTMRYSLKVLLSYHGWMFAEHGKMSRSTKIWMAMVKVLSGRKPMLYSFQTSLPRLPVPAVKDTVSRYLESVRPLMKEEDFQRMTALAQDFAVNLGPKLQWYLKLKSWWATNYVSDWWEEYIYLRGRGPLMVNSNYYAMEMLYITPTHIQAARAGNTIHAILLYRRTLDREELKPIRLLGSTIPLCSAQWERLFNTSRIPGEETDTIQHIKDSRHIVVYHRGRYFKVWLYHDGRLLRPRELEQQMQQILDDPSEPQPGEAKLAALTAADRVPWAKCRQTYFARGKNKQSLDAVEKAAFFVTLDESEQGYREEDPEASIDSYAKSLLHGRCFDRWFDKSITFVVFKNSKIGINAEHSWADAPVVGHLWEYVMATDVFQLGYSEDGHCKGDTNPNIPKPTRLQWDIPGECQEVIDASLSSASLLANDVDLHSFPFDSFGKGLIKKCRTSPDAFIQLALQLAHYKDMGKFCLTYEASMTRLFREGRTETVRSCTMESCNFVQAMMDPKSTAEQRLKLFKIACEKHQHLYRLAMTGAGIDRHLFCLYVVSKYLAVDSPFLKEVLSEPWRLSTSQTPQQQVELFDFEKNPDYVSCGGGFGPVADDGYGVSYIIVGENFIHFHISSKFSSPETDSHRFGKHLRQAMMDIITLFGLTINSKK
Described as §1.

The target of data set [5] is T4, Carnitine O-palmitoyltransferase 2, mitochondrial (Rattus norvegicus, UniProt P18886).
T4 sequence (P18886 whole entry): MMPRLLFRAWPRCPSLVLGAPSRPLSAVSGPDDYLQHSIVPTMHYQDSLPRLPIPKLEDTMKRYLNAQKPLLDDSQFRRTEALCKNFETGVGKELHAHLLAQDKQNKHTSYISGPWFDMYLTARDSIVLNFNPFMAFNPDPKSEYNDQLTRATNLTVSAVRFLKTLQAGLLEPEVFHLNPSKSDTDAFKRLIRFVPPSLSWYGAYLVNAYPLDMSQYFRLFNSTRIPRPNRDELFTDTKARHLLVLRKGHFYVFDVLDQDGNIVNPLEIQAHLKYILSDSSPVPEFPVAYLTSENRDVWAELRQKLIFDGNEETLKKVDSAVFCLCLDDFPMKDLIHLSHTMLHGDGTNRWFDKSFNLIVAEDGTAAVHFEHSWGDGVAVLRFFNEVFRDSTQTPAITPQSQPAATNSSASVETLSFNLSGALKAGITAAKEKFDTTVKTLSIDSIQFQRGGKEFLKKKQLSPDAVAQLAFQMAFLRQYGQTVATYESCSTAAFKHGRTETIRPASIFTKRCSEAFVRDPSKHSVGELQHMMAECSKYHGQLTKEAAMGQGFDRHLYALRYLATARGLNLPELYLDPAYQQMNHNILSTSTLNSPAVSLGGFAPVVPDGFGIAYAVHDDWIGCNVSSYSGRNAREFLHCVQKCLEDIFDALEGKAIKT
The data set can be described thus: (§2) SUPPLEMENTARY: Inhibition of Carnitine palmitoyltransferase 2.

In data set [6] the target is T5, Carnitine O-palmitoyltransferase 2, mitochondrial (Homo sapiens, UniProt P23786).
T5 sequence (P23786 whole entry): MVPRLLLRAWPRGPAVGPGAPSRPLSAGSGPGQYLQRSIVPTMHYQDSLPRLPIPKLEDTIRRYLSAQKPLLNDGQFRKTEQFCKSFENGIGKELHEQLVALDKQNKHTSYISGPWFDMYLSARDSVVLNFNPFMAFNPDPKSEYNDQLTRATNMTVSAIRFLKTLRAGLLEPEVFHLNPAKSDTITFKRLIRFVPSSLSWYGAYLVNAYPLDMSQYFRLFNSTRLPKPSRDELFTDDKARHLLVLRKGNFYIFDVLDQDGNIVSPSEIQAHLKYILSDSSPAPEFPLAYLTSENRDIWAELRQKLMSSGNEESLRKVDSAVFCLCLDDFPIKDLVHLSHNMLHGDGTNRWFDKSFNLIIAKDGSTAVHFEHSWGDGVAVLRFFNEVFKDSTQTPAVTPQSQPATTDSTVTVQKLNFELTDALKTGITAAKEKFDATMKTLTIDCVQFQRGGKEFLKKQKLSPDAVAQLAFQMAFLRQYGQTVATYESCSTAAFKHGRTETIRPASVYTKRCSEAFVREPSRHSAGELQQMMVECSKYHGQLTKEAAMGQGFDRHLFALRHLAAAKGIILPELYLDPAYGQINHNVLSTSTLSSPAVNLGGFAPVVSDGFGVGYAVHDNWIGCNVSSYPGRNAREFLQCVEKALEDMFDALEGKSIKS
The data set is described as §2.

Data set [7] can be described thus: SUPPLEMENTARY: Lyophilisation Solubility Assay (LYSA). Conditions: read-out: Kinetic_solubility. Format: physicochemical.

SMILES strings stand for the structures. ≈ marks a conversion by molar mass, not a printed value. Bounds are passed on as bounds.

As to `COc1ccc(Cl)cc1Sc1cn(C)c2ccc(C(=O)Nc3ccc(C(=O)O)cc3)cc12`, the IC50 (in general, the concentration that inhibits the measured activity by half) in data set [1] was more than 100000 nM; in data set [3], 61.9 nM; in data set [4] it was 74 nM; in data set [5], more than 100000 nM; in data set [6] it was more than 100000 nM. Moreover, in data set [2], the Papp worked out at 0.53 ×10⁻⁶ cm/s. Moreover, the solubility kinetic in data set [7] is 2 µg/mL (≈ 4.28 µM).

`CCn1cc(S(=O)(=O)c2cc(Cl)ccc2OC)c2cc(C(=O)Nc3ccc(C(=O)O)cc3)ccc21`: the half-maximal inhibitory concentration (IC50) in data set [1] turned out to be 1960 nM; in data set [3] it was 74.7 nM; in data set [4], 53.7 nM; in data set [5], 1860 nM; in data set [6], 537 nM. In addition, the Papp in data set [2] was determined as 0.67 ×10⁻⁶ cm/s. The solubility kinetic in data set [7] came to 15 µg/mL (≈ 29.2 µM).

As for `COc1ccc(Cl)cc1Cn1ccc2ccc(C(=O)Nc3nc(CC(=O)O)cs3)cc21`, the IC50 in data set [1] was 24200 nM; in data set [3], 170 nM; in data set [4], 90.5 nM; in data set [5] it was more than 100000 nM; in data set [6], more than 100000 nM. Also, the Papp in data set [2] is 1.14 ×10⁻⁶ cm/s. Also, the solubility kinetic in data set [7] is 13 µg/mL (≈ 28.5 µM).

Turning to `O=C([O-])c1cccc(-c2csc([C@H]3CCCCN3C(=O)COc3ccccc3)n2)c1.[Na+]`, the Papp in data set [2] came to 3.55 ×10⁻⁶ cm/s. Moreover, the IC50 in data set [3] was found to be 19.7 nM; in data set [4], 96.4 nM; in data set [5], 49600 nM; in data set [6], 28700 nM. Further, the solubility kinetic in data set [7] is more than 525 µg/mL.

Consider `COc1ccc(Cl)cc1S(=O)(=O)N1CCc2ccc(C(=O)Nc3ccc(C(=O)O)cc3)cc21`, for which the values for the IC50 in data set [1], in data set [4] and in data set [5] were more than 100000 nM, 55 nM and 7820 nM, respectively. In addition, the Papp in data set [2] stood at 2.78 ×10⁻⁶ cm/s. Moreover, the solubility kinetic in data set [7] was found to be 5 µg/mL (≈ 10.3 µM).

For the compound `Cc1cc(C)cc(S(=O)(=O)c2n[nH]c3ccc(C(=O)Nc4ccccc4)cc23)c1`, the IC50 is more than 100000 nM in data set [1], 221 nM in data set [3], more than 100000 nM in data set [5] and more than 100000 nM in data set [6]. In data set [7], the solubility kinetic is less than 1 µg/mL.

For `O=C(COc1ccccc1)N1CCCC[C@@H]1c1nc(-c2cccc([N+](=O)[O-])n2)no1`, the half-maximal inhibitory concentration (IC50) in data set [1] was more than 100000 nM; in data set [3] it was 254 nM; in data set [4], 760 nM; in data set [6], 17200 nM. In addition, in data set [2], the Papp worked out at 5.48 ×10⁻⁶ cm/s. Also, in data set [7], the solubility kinetic is 10 µg/mL (≈ 24.4 µM).

Turning to `O=C(COc1ccccc1)N1CCCC[C@@H]1c1noc(C2C[C@@H]3CC[C@H]2C3)n1` (stereo partly specified), the IC50 in data set [1] is more than 100000 nM; in data set [3] it was 32.6 nM; in data set [4], 310 nM; in data set [5], more than 100000 nM; in data set [6] it was 19900 nM. The solubility kinetic in data set [7] was less than 1 µg/mL.

In the case of `COc1ccc(Cl)cc1S(=O)(=O)N1CCSc2ccc(C(=O)Nc3ccc(C(=O)O)cc3)cc21`, the IC50 in data set [1] was more than 100000 nM; in data set [3] it was 65.4 nM; in data set [4] it was 56.9 nM; in data set [5], more than 100000 nM; in data set [6], more than 100000 nM. The solubility kinetic in data set [7] was 4 µg/mL (≈ 7.71 µM).

On to `COc1ccc(Cl)cc1S(=O)(=O)N1CCOc2c(C(F)F)cc(C(=O)Nc3ccc(C(=O)O)cc3)cc21`, for which the IC50 is more than 100000 nM in data set [1]; 325 nM in data set [3]; 2910 nM in data set [4]; 16000 nM in data set [5]; 1440 nM in data set [6].

Turning to `O=C([C@H]1CCCCN1C(=O)COc1ccccc1)N1Cc2ccc(O[C@H]3CCOC3)cc2C1`, the 50% inhibitory concentration (IC50) in data set [1] was more than 100000 nM; in data set [3], 118 nM; in data set [4] it was 35.7 nM; in data set [5], 1330 nM; in data set [6], 551 nM.

As to `O=C(COc1ccccc1)N1CCCCC1c1ncc(-c2cccc([N+](=O)[O-])c2)o1` (stereo unspecified), the IC50 was more than 100000 nM in data set [1], 243 nM in data set [3], 237 nM in data set [4] and 12800 nM in data set [6]. In data set [2], the Papp came out at 0.66 ×10⁻⁶ cm/s. Moreover, the solubility kinetic in data set [7] turned out to be 4 µg/mL (≈ 9.82 µM).

For the compound `O=C([C@H]1CCCCN1C(=O)COc1ccccc1)N1CCc2c(Cl)cccc2C1`, the IC50 in data set [1] is more than 100000 nM; in data set [3] it was 224 nM; in data set [4], 367 nM; in data set [5] it was 1610 nM; in data set [6], 634 nM.
